Laboratory results taken from patent publication US20050020630A1, “Cycloalkyl and heterocycloalkyl substituted benzothiophenes as therapeutic agents” (priority 2003, published 2005).

Target: T1, PI3Kγ (Homo sapiens, UniProt P48736)
T1 construct: HA; made in house; host or cells: Spodoptera frugiperda (Sf9) cells, baculovirus co-infection
Test: PI3Kγ In Vitro Kinase Assay
Format: biochemical
Settings: purified recombinant p101/p110 γ protein with G protein β1/γ2 subunits; 20 μM ATP, 25 μM PIP2; 20 minutes at room temperature; radioactive PIP3 readout
Method: Spodtera frugiperda cells, grown in ESF921 media, were coinfected with baculovirus expressing a glu-tagged p101 and baculovirus expressing an HA-tagged p110γ, at a 3:1 ratio of p101 baculovirus to p110γ baculovirus. Sf9 cells were grown to 1×10^7 total cells/mL in 10 L bioreactors and harvested 48-72 hours post infection. Samples of infected cells were then tested for expression of p101/p110 γ PI3 kinase by immunoprecipitation and Western Blot analysis methods (see below). To purify PI3Kγ, 4 volumes of room temperature hypotonic lysis buffer (1 mM MgCl2, 1 mM DTT, 5 mM EGTA, 1 mM Pefabloc, 0.5 μM aprotinin, 5 μM leupeptin, 2 μM pepstatin, 5 μM E64, pH 8) per gram of cell paste, was poured onto frozen cell pellets with stirring, then lysed in a nitrogen “bomb” at 400 psi (599HC […], Parr Instrument Co, Moline, Ill.). NaCl was added to 150 mM, and sodium cholate was added to 1% and mixed for another 45 minutes. The lysates were clarified by centrifugation for 25 minutes at 14,000 rpm. The lysates were then loaded over anti-glu-linked Protein-G Sepaharose beads (Covance Research Products, Richmond, Calif.) using 20 mL resin/50 g cell paste. The column was washed with 15 volumes of wash buffer (1 mM DTT, 0.2 mM EGTA, 1 mM Pefabloc, 0.5 μM aprotinin, 5 μM leupeptin, 2 μM pepstatin, 5 μM E64, 150 mM NaCl, 1% sodium cholate, pH 8). PI3Kγ was eluted with 6 column volumes of wash buffer that contain 100 μg/mL of a peptide that competes for binding of the glu tag. The column fractions with the eluted protein (determined by taking OD280 readings) were collected and dialyzed in 0.2 mM EGTA, 1 mM DTT, 1 mM Pefabloc, 5 μM leupeptin, 0.5% sodium cholate, 150 mM NaCl, and 50% glycerol, pH 8. The fractions were stored at -80° C. until further use. Spodtera frugiperda cells were coinfected with baculovirus expressing a glu-tagged G protein β1 and baculovirus expressing a G protein β2, at a 1:1 ratio of glu-tagged G protein β1 baculovirus to G protein β2 baculovirus. Sf9 cells are grown in 10 L bioreactors and harvested 48-72 hours post infection. Samples of infected cells were tested for G protein β1/β2 expression by Western Blot analysis, as described below. Cell lysates were homogenized and loaded onto a column of glu-tagged beads as in Biological Example 1 and competed off the column with a glu peptide and processed as described in Biological Example 1. The inhibitory properties of the compounds in Table 1 were assayed in an in vitro PI3K assay. In a 96-well polypropylene plate, each well was spotted with 2 μL of 50 times the desired final concentration of compound in DMSO. Purified recombinant p101/p110 γ protein (0.03 μg; 2.7 nM) and G protein β1/γ2 subunits (0.09 μg; 57.7 nM) for each reaction was combined in the assay buffer (30 mM HEPES, 100 mM NaCl, 1 mM EGTA, and 1 mM DTT). ATP and [γ-^32P-ATP] (0.09 μCi) were added to this mixture so that the final ATP concentration in the reaction was 20 μM. Lipid micelles were formed by sonicating phosphatidylinositol-4,5-diphosphate (PIP2), phosphatidylethanolamine (PE), and Na-cholate in the assay buffer for 10 minutes, adding MgCl2 and incubating on ice for 20 minutes, for final concentrations of 25 μM PIP2, 300 μM PE, 0.02% Na-cholate, and 10 mM MgCl2 in the reaction. The reactions were started by adding equal volumes lipid and enzyme mixture in a total volume of 50 μL, allowed to run for 20 minutes at room temperature, and stopped with 100 μL 75 mM H3PO4. The lipid product was transferred to a glass fiber filter plate and washed with 75 mM H3PO4 several times. The presence of radioactive lipid product (PIP3) was measured by adding Wallac Optiphase mix to each well and counting in a Wallac 1450 Trilux plate reader (PerkinElmer Life Sciences Inc., Boston, Mass. 02118). The IC50 for each compound tested is reported in μM in Table 1: […]

T1 sequence (P48736 whole entry, species assumed): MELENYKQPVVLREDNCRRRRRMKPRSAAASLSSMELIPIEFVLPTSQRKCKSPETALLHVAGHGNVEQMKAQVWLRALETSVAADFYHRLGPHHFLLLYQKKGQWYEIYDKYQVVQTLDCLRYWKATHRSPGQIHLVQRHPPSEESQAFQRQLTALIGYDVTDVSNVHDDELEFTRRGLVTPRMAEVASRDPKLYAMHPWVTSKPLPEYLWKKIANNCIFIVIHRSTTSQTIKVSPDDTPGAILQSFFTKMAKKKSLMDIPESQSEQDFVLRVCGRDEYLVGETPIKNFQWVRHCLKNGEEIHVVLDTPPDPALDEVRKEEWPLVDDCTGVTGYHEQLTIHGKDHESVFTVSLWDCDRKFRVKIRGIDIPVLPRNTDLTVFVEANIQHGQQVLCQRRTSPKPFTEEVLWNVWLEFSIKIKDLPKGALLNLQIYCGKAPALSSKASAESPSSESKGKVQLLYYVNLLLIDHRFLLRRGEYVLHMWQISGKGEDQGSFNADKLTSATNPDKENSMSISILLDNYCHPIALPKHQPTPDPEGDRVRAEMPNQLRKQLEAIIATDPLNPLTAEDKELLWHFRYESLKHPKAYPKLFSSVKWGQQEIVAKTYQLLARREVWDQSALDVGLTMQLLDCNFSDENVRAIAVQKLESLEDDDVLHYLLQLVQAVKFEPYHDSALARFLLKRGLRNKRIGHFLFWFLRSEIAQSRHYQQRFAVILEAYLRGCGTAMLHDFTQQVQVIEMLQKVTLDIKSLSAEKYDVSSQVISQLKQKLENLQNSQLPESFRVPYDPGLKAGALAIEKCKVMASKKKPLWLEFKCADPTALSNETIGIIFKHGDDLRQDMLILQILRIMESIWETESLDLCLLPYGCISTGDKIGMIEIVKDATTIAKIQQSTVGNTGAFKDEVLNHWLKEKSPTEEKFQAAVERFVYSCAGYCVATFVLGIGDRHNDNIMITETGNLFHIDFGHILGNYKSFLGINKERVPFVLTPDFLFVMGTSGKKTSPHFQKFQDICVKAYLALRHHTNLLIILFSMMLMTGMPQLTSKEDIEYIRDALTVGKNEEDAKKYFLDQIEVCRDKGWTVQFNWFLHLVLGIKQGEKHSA
T1 sequence (Q8WYR1 whole entry partner, species assumed): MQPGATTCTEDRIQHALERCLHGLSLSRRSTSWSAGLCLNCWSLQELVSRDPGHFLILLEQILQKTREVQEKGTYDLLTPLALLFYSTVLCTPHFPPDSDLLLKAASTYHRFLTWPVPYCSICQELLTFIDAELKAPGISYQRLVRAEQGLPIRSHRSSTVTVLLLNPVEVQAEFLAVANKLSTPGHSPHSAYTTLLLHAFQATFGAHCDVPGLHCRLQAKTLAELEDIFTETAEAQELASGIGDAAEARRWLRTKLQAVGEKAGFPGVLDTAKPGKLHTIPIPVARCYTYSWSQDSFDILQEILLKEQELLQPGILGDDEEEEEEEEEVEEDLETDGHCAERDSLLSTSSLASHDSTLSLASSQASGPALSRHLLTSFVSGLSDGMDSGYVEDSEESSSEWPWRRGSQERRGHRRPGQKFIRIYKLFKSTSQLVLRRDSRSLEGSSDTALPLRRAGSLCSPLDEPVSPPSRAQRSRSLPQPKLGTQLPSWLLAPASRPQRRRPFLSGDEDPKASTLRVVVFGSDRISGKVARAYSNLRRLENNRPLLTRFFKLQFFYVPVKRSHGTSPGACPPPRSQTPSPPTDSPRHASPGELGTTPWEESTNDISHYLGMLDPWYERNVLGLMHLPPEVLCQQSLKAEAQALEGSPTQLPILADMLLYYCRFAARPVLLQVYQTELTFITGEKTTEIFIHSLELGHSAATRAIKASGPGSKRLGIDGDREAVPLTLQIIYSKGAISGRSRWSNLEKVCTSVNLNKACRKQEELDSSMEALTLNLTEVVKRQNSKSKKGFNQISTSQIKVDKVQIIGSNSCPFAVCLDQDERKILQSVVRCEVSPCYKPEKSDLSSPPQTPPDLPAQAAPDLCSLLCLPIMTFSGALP

IC50	Molecule
110 nM	COc1cc2sc(C(=O)Nc3nnn[nH]3)c(OC3CCC(C4CCCCC4)CC3)c2cc1OC (stereo not drawn) [Example 30, 3-(Bicyclohexyl-4-yloxy)-5,6-dimethoxy-benzo[b]thiophene-2-carboxylic acid (1H-tetrazol-5-yl)-amide]
14 nM	COc1cc2sc(C(=O)Nc3nnn[nH]3)c(OCC3C4CCC(C4)C3C)c2cc1OC (stereo not drawn) [Example 29, 5,6 Dimethoxy-3-(3-methyl-bicyclo[2.2.1]hept-2-ylmethoxy)-benzo[b]thiophene-2-carboxylic acid (1H-tetrazol-5-yl)-amide]
20 nM	COc1cc2sc(C(=O)Nc3nn[nH]n3)c(OC3CCCCC3)c2cc1C [Example 51, 3-Cyclohexyloxy-6-methoxy-5-methyl-benzo[b]thiophene-2-carboxylic acid (2H-tetrazol-5-yl)-amide]
20 nM	COc1cc2c(OCC3(C)CC3)c(C(=O)Nc3nn[nH]n3)sc2cc1C [Example 18, 5-Methoxy-6-methyl-3-(1-methyl-cyclopropylmethoxy)-benzo[b]thiophene-2-carboxylic acid (2H-tetrazol-5-yl)-amide]
120 nM	COc1cc2sc(C(=O)Nc3nnn[nH]3)c(OC3CCCC3)c2cc1OC [Example 50, 3-Cyclopentyloxy-5,6-dimethoxy-benzo[b]thiophene-2-carboxylic acid (1H-tetrazol-5-yl)-amide]
83 nM	COc1cc2sc(C(=O)Nc3nnn[nH]3)c(OC3CCOCC3)c2cc1OC [Example 41, 5,6-Dimethoxy-3-(tetrahydro-pyran-4-yloxy)-benzo[b]thiophene-2-carboxylic acid (1H-tetrazol-5-yl)-amide]
24 nM	COc1cc2c(OC3CCCC(C)C3)c(C(=O)Nc3nn[nH]n3)sc2cc1C (single isomer, unassigned) [Example 2, 5-Methoxy-6-methyl-3-(3-methyl-cyclohexyloxy)-benzo[b]thiophene-2-carboxylic acid (2H-tetrazol-5-yl)-amide]
2550 nM	COc1cc2sc(C(=O)Nc3nnn[nH]3)c(OC3CCN(Cc4ccccc4)CC3)c2cc1OC [Example 49, 3-(1-Benzyl-piperidin-4-yloxy)-5,6-dimethoxy-benzo[b]thiophene-2-carboxylic acid (1H-tetrazol-5-yl)-amide]
715 nM	COc1cc2c(OC3CCNCC3)c(C(=O)Nc3nn[nH]n3)sc2cc1C [Example 12, 5-Methoxy-6-methyl-3-(piperidiny-4yloxy)-benzo[b]thiophene-2-carboxylic acid (2H-tetrazol-5-yl)amide]
250 nM	COc1cc2c(OC3CCN(Cc4ccccc4)CC3)c(C(=O)Nc3nn[nH]n3)sc2cc1C [Example 9, 3-(1-Benzyl-piperidin-4-yloxy)-5-methoxy-6-methyl-benzo[b]thiophene-2-carboxylic acid (2H-tetrazol-5-yl)-amide]
453 nM	COc1cc2sc(C(=O)Nc3nn[nH]n3)c(OCC3CC3(Cl)Cl)c2cc1OC (stereo not drawn) [Example 20, 3-(2,2-Dichloro-cyclopropylmethoxy)-5,6-dimethoxy-benzo[b]thiophene-2-carboxylic acid (2H-tetrazol-5-yl)-amide]
1290 nM	COc1cc2c(OC3CCCNC3)c(C(=O)Nc3nn[nH]n3)sc2cc1C (stereo not drawn) [Example 10]
53 nM	COc1cc2c(OC3CCCN(C(=O)OC(C)(C)C)C3)c(C(=O)Nc3nn[nH]n3)sc2cc1C (stereo not drawn) [Example 14]
24 nM	COc1cc2c(OC3CCOCC3)c(C(=O)Nc3nn[nH]n3)sc2cc1C [Example 1, 5-Methoxy-6-methyl-3-(tetrahydro-pyran-4-yloxy)-benzo[b]thiophene-2-carboxylic acid (2H-tetrazol-5-yl)-amide]
30 nM	COc1cc2sc(C(=O)Nc3nnn[nH]3)c(OC3CC(C)CC(C)C3)c2cc1OC (stereo not drawn) [Example 46, 3-(3,5-Dimethyl-cyclohexyloxy)-5,6-dimethoxy-benzo[b]thiophene-2-carboxylic acid (1H-tetrazol-5-yl)-amide]
445 nM	5,6-Dimethoxy-3-(3-methyl-oxetan-3-ylmethylmethoxy)-benzo[b]thiophene-2-carboxylic acid (1H-tetrazol-5-yl)-amide [Example 25]
9 nM	COc1cc2c(OC3CC(C)CC(C)(C)C3)c(C(=O)Nc3nn[nH]n3)sc2cc1C (stereo not drawn) [Example 4, 5-Methoxy-6-methyl-3-(3,3,5-trimethyl-cyclohexyloxy)-benzo[b]thiophene-2-carboxylic acid (2H-tetrazol-5-yl)-amide]
170 nM	COc1cc2sc(C(=O)Nc3nnn[nH]3)c(OC3CC(C)CC(C)(C)C3)c2cc1OC (stereo not drawn) [Example 48, 5,6-Dimethoxy-3-(3,3,5-trimethyl-cyclohexyloxy)-benzo[b]thiophene-2-carboxylic acid (1H-tetrazol-5-yl)-amide]
51 nM	COc1cc2sc(C(=O)Nc3nnn[nH]3)c(OCC3(C)CC3)c2cc1OC [Example 37, 5,6-Dimethoxy-3-(1-methyl-cyclopropylmethoxy)-benzo[b]thiophene-2-carboxylic acid (1H-tetrazol-5-yl)-amide]
48 nM	COc1cc2sc(C(=O)Nc3nnn[nH]3)c(OC3CCCCCCC3)c2cc1OC [Example 33, 3-Cyclooctyloxy-5,6-dimethoxy-benzo[b]thiophene-2-carboxylic acid (1H-tetrazol-5-yl)-amide]
165 nM	COc1cc2c(OC3CC(C)(C)CC(C)(C)C3)c(C(=O)Nc3nn[nH]n3)sc2cc1C [Example 3, 5-Methoxy-6-methyl-3-(3,3,5,5-tetramethyl-cyclohexyloxy)-benzo[b]thiophene-2-carboxylic acid (2H-tetrazol-5-yl)-amide]
575 nM	COc1cc2sc(C(=O)Nc3nnn[nH]3)c(OC3CCOC3)c2cc1OC (stereo not drawn) [Example 27, 5,6-Dimethoxy-3-(tetrahydro-furan-3-yloxy)-benzo[b]thiophene-2-carboxylic acid (1H-tetrazol-5-yl)-amide]
34 nM	COc1cc2sc(C(=O)Nc3nn[nH]n3)c(OC3CCCCC3)c2cc1OC [Example 22, 3-Cyclohexyloxy-5,6-dimethoxy-benzo[b]thiophene-2-carboxylic acid (2H-tetrazol-5-yl)-amide]
112 nM	COc1cc2sc(C(=O)Nc3nnn[nH]3)c(OC3CCC4CCCCC4C3)c2cc1OC (stereo not drawn) [Example 47, 3-(Decahydro-naphthalen-2-yloxy)-5,6-dimethoxy-benzo[b]thiophene-2-carboxylic acid (1H-tetrazol-5-yl)-amide]
